Test results reported in patent publication US11192867B2, “Microbiocidal oxadiazole derivatives” (SYNGENTA PARTICIPATIONS AG, priority 2016, dated 2021).

Assays:
[1] = test system: Puccinia recondita f. sp. Tritici; assay: Fungicidal activity against Puccinia recondita f. sp. Tritici / wheat / leaf disc preventative (brown rust); format: in vivo; details: foliar, 200 ppm in the applied formulation, wheat leaf segments cv. Kanzler, inoculated 1 day after application, vs untreated control, read-out: disease control
Protocol: Leaf disks or leaf segments of various plant species are cut from plants grown in a greenhouse. The cut leaf disks or segments are placed in multiwell plates (24-well format) onto water agar. The leaf disks are sprayed with a test solution before (preventative) or after (curative) inoculation. Compounds to be tested are prepared as DMSO solutions (max. 10 mg/ml) which are diluted to the appropriate concentration with 0.025% Tween20 just before spraying. The inoculated leaf disks or segments are incubated under defined conditions (temperature, relative humidity, light, etc.) according to the respective test system. A single evaluation of disease level is carried out 3 to 14 days after inoculation, depending on the pathosystem. Percent disease control relative to the untreated check leaf disks or segments is then calculated. Wheat leaf segments cv. Kanzler were placed on agar in multiwell plates (24-well format) and sprayed with the formulated test compound diluted in water. The leaf disks were inoculated with a spore suspension of the fungus 1 day after application. The inoculated leaf segments were incubated at 19° C. and 75% relative humidity (rh) under a light regime of 12 hours light/12 hours darkness in a climate cabinet and the activity of a compound was assessed as percent disease control compared to untreated when an appropriate level of disease damage appears in untreated check leaf segments (7 to 9 days after application). The following compounds at 200 ppm in the applied formulation give at least 80% disease control in this test when compared to untreated control leaf disks under the same conditions, which show extensive disease development.

[2] = test system: Phakopsora pachyrhizi; assay: Fungicidal activity against Phakopsora pachyrhizi / soybean / leaf disc preventative (Asian soybean rust); format: in vivo; details: foliar, 200 ppm in the applied formulation, soybean leaf disks, vs untreated control, read-out: disease control
Protocol: Leaf disks or leaf segments of various plant species are cut from plants grown in a greenhouse. The cut leaf disks or segments are placed in multiwell plates (24-well format) onto water agar. The leaf disks are sprayed with a test solution before (preventative) or after (curative) inoculation. Compounds to be tested are prepared as DMSO solutions (max. 10 mg/ml) which are diluted to the appropriate concentration with 0.025% Tween20 just before spraying. The inoculated leaf disks or segments are incubated under defined conditions (temperature, relative humidity, light, etc.) according to the respective test system. A single evaluation of disease level is carried out 3 to 14 days after inoculation, depending on the pathosystem. Percent disease control relative to the untreated check leaf disks or segments is then calculated. Soybean leaf disks are placed on water agar in multiwell plates (24-well format) and sprayed with the formulated test compound diluted in water. One day after application leaf discs are inoculated by spraying a spore suspension on the lower leaf surface. After an incubation period in a climate cabinet of 24-36 hours in darkness at 20° C. and 75% rh leaf disc are kept at 20° C. with 12 hours light/12 hours and 75% rh. The activity of a compound is assessed as percent disease control compared to untreated when an appropriate level of disease damage appears in untreated check leaf disks (12 to 14 days after application). The following compounds at 200 ppm in the applied formulation give at least 80% disease control in this test when compared to untreated control leaf disks under the same conditions, which show extensive disease development.

[3] = test system: Glomerella lagenarium (Colletotrichum lagenarium); assay: Fungicidal activity against Glomerella lagenarium (Colletotrichum lagenarium) liquid culture / cucumber / preventative (anthracnose); format: cell-based; details: Colletotrichum orbiculare, 72 h; 20 ppm in the applied formulation; liquid culture (PDB), growth inhibition measured photometrically 3 to 4 days after application; vs untreated control; read-out: disease control
Protocol: Mycelia fragments or conidia suspensions of a fungus prepared either freshly from liquid cultures of the fungus or from cryogenic storage, are directly mixed into nutrient broth. DMSO solutions of the test compound (max. 10 mg/ml) are diluted with 0.025% Tween20 by a factor of 50 and 10 μl of this solution is pipetted into a microtiter plate (96-well format). The nutrient broth containing the fungal spores/mycelia fragments is then added to give an end concentration of the tested compound. The test plates are incubated in the dark at 24° C. and 96% relative humidity. The inhibition of fungal growth is determined photometrically after 2 to 7 days, depending on the pathosystem, and percent antifungal activity relative to the untreated check is calculated.
Conidia of the fungus from cryogenic storage are directly mixed into nutrient broth (PDB—potato dextrose broth). After placing a (DMSO) solution of test compound into a microtiter plate (96-well format), the nutrient broth containing the fungal spores is added. The test plates are incubated at 24° C. and the inhibition of growth is measured photometrically 3 to 4 days after application.
The following compounds at 20 ppm in the applied formulation give at least 80% disease control in this test when compared to untreated control under the same conditions, which show extensive disease development.

O=C(NCC=NOCc1ccccc1)c1ccc(-c2noc(C(F)(F)F)n2)cc1 [Compound 1.90, N-(2-benzyloxyimino-ethyl)-4-[5-(trifluoromethyl)-1,2,4-oxadiazol-3-yl]benzamide]
≥ 80%: pest or weed control at 200 ppm [1] | pest or weed control at 200 ppm [2] | inhibition of growth at 20 ppm [3]

O=C(O)Cc1ccccc1CON=CCNC(=O)c1ccc(-c2noc(C(F)(F)F)n2)cc1 [Compound 1.92, 2-[2-[[2-[[4-[5-(trifluoromethyl)-1,2,4-oxadiazol-3-yl]benzoyl]amino]ethylideneamino]oxymethyl]phenyl] acetic acid]
≥ 80%: pest or weed control at 200 ppm [1] | pest or weed control at 200 ppm [2] | inhibition of growth at 20 ppm [3]

CC(CNC(=O)c1ccc(-c2noc(C(F)(F)F)n2)cc1)=NOCC=CCl [Compound 1.121, N-[2-(3-chloroallyloxy-imino)propyl]-4-[5-(trifluoromethyl)-1,2,4-oxadiazol-3-yl]benzamide]
≥ 80%: pest or weed control at 200 ppm [1] | pest or weed control at 200 ppm [2] | inhibition of growth at 20 ppm [3]

CC(CNC(=O)c1ccc(-c2noc(C(F)(F)F)n2)cc1)=NOCC=C(Cl)Cl [Compound 1.122, N-[2-(3,3-dichloroallyloxy-imino)propyl]-4-[5-(trifluoromethyl)-1,2,4-oxadiazol-3-yl]benzamide]
≥ 80%: pest or weed control at 200 ppm [1] | pest or weed control at 200 ppm [2] | inhibition of growth at 20 ppm [3]

CC(C)=CCON=C(C)CNC(=O)c1ccc(-c2noc(C(F)(F)F)n2)cc1 [Compound 1.123, N-[2-(3-methylbut-2-enoxyimino)propyl]-4-[5-(trifluoromethyl)-1,2,4-oxadiazol-3-yl]benzamide]
≥ 80%: pest or weed control at 200 ppm [1] | pest or weed control at 200 ppm [2] | inhibition of growth at 20 ppm [3]

CC(CNC(=O)c1ccc(-c2noc(C(F)(F)F)n2)cc1)=NOC/C=C\Cl [Compound 1.124, N-[2-[(Z)-3-chloroallyloxy]iminopropyl]-4-[5-(trifluoromethyl)-1,2,4-oxadiazol-3-yl]benzamide]
≥ 80%: pest or weed control at 200 ppm [1] | pest or weed control at 200 ppm [2] | inhibition of growth at 20 ppm [3]

CC(CNC(=O)c1ccc(-c2noc(C(F)(F)F)n2)cc1)=NOC(C)(C)C [Compound 1.132, N-(2-tert-butoxyiminopropyl)-4-[5-(trifluoromethyl)-1,2,4-oxadiazol-3-yl]benzamide]
≥ 80%: pest or weed control at 200 ppm [1] | pest or weed control at 200 ppm [2] | inhibition of growth at 20 ppm [3]

CC(CNC(=O)c1ccc(-c2noc(C(F)(F)F)n2)cc1)=NOCC(F)(F)F [Compound 1.139, N-[2-(2,2,2-trifluoroethoxy-imino)propyl]-4-[5-(trifluoromethyl)-1,2,4-oxadiazol-3-yl]benzamide]
≥ 80%: pest or weed control at 200 ppm [1] | pest or weed control at 200 ppm [2] | inhibition of growth at 20 ppm [3]

C=C(Cl)CON=C(C)CNC(=O)c1ccc(-c2noc(C(F)(F)F)n2)cc1 [Compound 1.144, N-[2-(2-chloroallyloxy-imino)propyl]-4-[5-(trifluoromethyl)-1,2,4-oxadiazol-3-yl]benzamide]
≥ 80%: pest or weed control at 200 ppm [1] | pest or weed control at 200 ppm [2] | inhibition of growth at 20 ppm [3]
